Measured values: publication PMC8032624, “Prediction of dose-dependent in vivo acetylcholinesterase inhibition by profenofos in rats and humans using physiologically based kinetic (PBK) modeling-facilitated reverse dosimetry” (Archives of Toxicology, 2021)

Tests used:
in vitro [1] = assay type: in vitro ADME, human; conditions: for Vmax / Km: conversion of profenofos to BCP; for Km: pH 7.4
Experimental: (§1) Incubations of profenofos with rat and human liver microsomes, liver cytosol and plasma were performed to quantify in vitro rates of BCP formation. Conditions were optimized to be linear for metabolite formation with regard to incubation time and microsomal, cytosolic and plasma protein concentration (data not shown). The final incubations were carried out in 100 mM Tris HCl (pH 7.4, 37 °C) containing (final concentrations) 5 mM MgCl2, 2 mM CaCl2 [to stimulate PON1 activity (Carr et al. [2015])], 2 mM NADPH (cofactor to also include CYP-mediated metabolism), enzyme preparation (final concentration 2 mg/ml for human liver microsomes and cytosol and 4.4 mg/ml for human plasma; 0.5 mg/ml for rat microsomes and cytosol and 1.65 mg/ml for rat plasma) and profenofos (at final concentrations ranging from 1 to 100 μM, added from 100 times concentrated stock solutions in DMSO). Control incubations were performed in the absence of microsomes, cytosol or plasma. After 2 min pre-incubation, the reaction was initiated by adding the substrate and mixtures were incubated for 2 min in a 37 °C water bath. The total volume of the incubation mixtures was 200 μl. The reaction was terminated by the addition of 50 μl ice cold ACN and samples were kept on ice. The mixture was centrifuged at 14,000g for 20 min at 4 °C and the supernatant was analyzed using UPLC-UV.
(§2) All samples from incubations were analyzed using a Waters Acquity UPLC H class system that consisted of a quaternary solvent manager, a sample manager, and a photodiode array (PDA) detector, equipped with a Water Acquity UPLC® BEH C18 column (1.7 μm, 2.1 × 50 mm) and Waters Xbridge UPLC® BEH C18 pre-column (2.5 μM, 2.1 × 5 mm). The temperature of the column was kept at 40 °C and the auto sampler at 10 °C during the UPLC analysis. The mobile phases used for the analysis consisted of (A) 0.1% TFA in nanopure water and (B) 100% ACN. A gradient elution at a flow rate of 0.6 ml/min was applied for the analysis with the initial condition of 100% A:0% B (v/v), changing in a linear way to 0% A:100% B from 0 to 6 min, which was maintained for 30 s, and then changed back to the initial conditions in 30 s, which were maintained for 1 min. The injection volume for each sample was 3.5 μl.
(§3) Under these conditions, the retention times of profenofos and BCP were 4.76 and 3.37 min, respectively. The amounts of profenofos and BCP were quantified by integrating the peak areas at 237 nm using calibration curves that were prepared using commercially available standards.
(§4) Kinetic parameters including the apparent maximum velocity (Vmax) and the apparent Michaelis–Menten constant (Km) for BCP formation were obtained by fitting the data for the substrate concentration-dependent rate of conversion (expressed in nmol/min/mg protein) using GraphPad Prism 5, version 5.04 (San Diego, California, USA) to the standard Michaelis–Menten equation: V=Vmax∗S/(Km+S) in which the S represents the concentration of substrate, expressed in μM, V and Vmax the velocity and the maximum velocity of the reaction, respectively, expressed in nmol/min/mg protein, and Km the apparent Michaelis–Menten constant, expressed in μM. The kinetic parameter values for conversion of profenofos to BCP in the liver microsomes, liver cytosol and plasma were determined. To determine the catalytic efficiency, Vmax was divided by the Km.

in vitro [2] = assay type: in vitro ADME; conditions: conversion of profenofos to BCP; for Km: pH 7.4
Experimental: as §1, §2, §3, §4

rat RBC AChE = target: T1, rat RBC AChE (Rattus norvegicus, UniProt P37136); assay: In vitro inhibition of rat erythrocyte (RBC) AChE; assay type: biochemical
T1 construct: contained 0.005 mg/ml erythrocyte ‘ghost’ membrane protein; tissue BioIVT; host or cells: rat blood; erythrocyte 'ghost' membranes (Sprague-Dawley rats)
Experimental: To perform reverse dosimetry of in vitro AChE inhibition by profenofos, first the in vitro AChE activity in the absence or presence of increasing concentrations of profenofos was determined. For humans, commercially available recombinant AChE was used. For rats, no commercially available recombinant AChE was available, so rat AChE was obtained from rat blood as described below.
AChE activity was expressed as enzyme activity (percent of control). The concentration of profenofos that produced a 50% decrease in AChE activity (IC50) was determined from best‐fit plots of the mean (± SD) percentages of inhibition vs. the 10log logarithm of profenofos concentrations using GraphPad Prism 5, version 5.04 (San Diego, California, USA) equation: Y=100/(1+10^(X-LogIC50)).
Rat blood samples were processed according to a method reported by Larsen et al. ([2019]) with a few modifications to isolate the extrinsic membrane bound AChE. Briefly, the blood sample (2 ml) was centrifuged at 3000g for 15 min to separate plasma and cells. […] Aliquots of erythrocyte ‘ghost’ membrane preparations were used for protein measurement using the Pierce™ BCA Protein Assay Kit (Thermofisher) with BSA as standard for quantification (Lowry et al. [1951]), and for AChE activity assessment.
The effect of profenofos on rat AChE activity was assessed as described above for human recombinant AChE, with a few modifications. […]

RBC AChE = conditions: adult rats, single exposure; ref EPA [2016]; cited from earlier work
brain AChE = conditions: rats, single exposure; ref JMPR [2007]; cited from earlier work
brain cholinesterase = conditions: based on NOAEL in a dog study, brain cholinesterase inhibition; ref EFSA [2019]; cited from earlier work

T1 sequence (P37136 other isoform, or with tags, fused parts or gaps): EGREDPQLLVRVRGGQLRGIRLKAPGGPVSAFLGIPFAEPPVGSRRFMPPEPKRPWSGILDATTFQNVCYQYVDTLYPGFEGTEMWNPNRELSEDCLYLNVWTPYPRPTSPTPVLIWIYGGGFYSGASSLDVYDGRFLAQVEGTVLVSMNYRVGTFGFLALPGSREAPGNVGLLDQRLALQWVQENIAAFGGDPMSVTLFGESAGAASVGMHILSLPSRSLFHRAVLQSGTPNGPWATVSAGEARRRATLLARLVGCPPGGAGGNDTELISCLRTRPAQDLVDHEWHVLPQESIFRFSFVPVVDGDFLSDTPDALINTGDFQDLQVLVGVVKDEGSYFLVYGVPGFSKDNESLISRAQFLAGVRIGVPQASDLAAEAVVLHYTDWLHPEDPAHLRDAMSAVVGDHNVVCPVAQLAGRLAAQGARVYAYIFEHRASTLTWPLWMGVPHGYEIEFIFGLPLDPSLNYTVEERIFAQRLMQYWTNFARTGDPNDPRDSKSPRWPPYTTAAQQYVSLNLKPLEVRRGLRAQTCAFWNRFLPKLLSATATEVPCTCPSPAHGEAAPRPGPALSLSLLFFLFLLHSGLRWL

For `CCCSP(=O)(OCC)Oc1ccc(Br)cc1Cl` (stereo not shown) [profenofos, O-(4-bromo-2-chlorophenyl) O-ethyl S-propyl phosphorothioate], the Vmax (in vitro [1]; human liver cytosol) was 1.1 nmol/min/mg cytosolic protein, the Vmax (in vitro [1]; human liver microsomes) was 1.2 nmol/min/mg microsomal protein and the Vmax (in vitro [1]; human plasma) was 0.99 nmol/min/mg plasma protein. The “Catalytic efficiency, fold lower for human than rat liver cytosol” value (in vitro [1]; human vs rat liver cytosol) was 3.8 fold, the “Km, fold higher for human than rat liver cytosol” value (in vitro [1]; human vs rat liver cytosol) was 4.1 fold and the “Vmax, fold higher for human than rat liver cytosol” value (in vitro [1]; human vs rat liver cytosol) was 1.1 fold. For the same compound, the “Catalytic efficiency, fold lower in human than rat liver microsomes” value (in vitro [1]; human vs rat liver microsomes) was 6.5 fold, the “Km, fold lower in human than rat liver microsomes” value (in vitro [1]; human vs rat liver microsomes) was 1.2 fold and the “Vmax, fold lower in human than rat liver microsomes” value (in vitro [1]; human vs rat liver microsomes) was 7.7 fold. The “Catalytic efficiency, fold lower for human than rat plasma” value (in vitro [1]; human vs rat plasma) was 32 fold, the “Km, fold higher for human than rat plasma” value (in vitro [1]; human vs rat plasma) was 44 fold and the “Vmax, fold higher for human than rat plasma” value (in vitro [1]; human vs rat plasma) was 1.5 fold. It also gave a Km (in vitro [1]; human liver cytosol) of 1.4 µM, a Km (in vitro [1]; human liver microsomes) of 6.9 µM and a Km (in vitro [1]; human plasma) of 158 µM. For the same compound, the Vmax (in vitro [2]; rat liver cytosol) was 0.95 nmol/min/mg cytosolic protein, the Vmax (in vitro [2]; rat liver microsomes) was 8.9 nmol/min/mg microsomal protein and the Vmax (in vitro [2]; rat plasma) was 0.68 nmol/min/mg plasma protein. The Km (in vitro [2]; rat liver cytosol) was 0.34 µM, the Km (in vitro [2]; rat liver microsomes) was 8.1 µM and the Km (in vitro [2]; rat plasma) was 3.6 µM. For the same compound, the IC50 (rat RBC AChE) was 312 nM, the “BMDL10 for RBC AChE inhibition” value (RBC AChE) was 1.99 mg/kg bw and the “NOAEL for inhibition of brain AChE” value (brain AChE) was 100 mg/kg bw. The ARfD (brain cholinesterase) was 0.005 mg/kg bw.
